In ChEMBL document CHEMBL1201862, “PubChem BioAssay data set” (2004):
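These data come from cells grown in 96-well plates and exposed to compound for 48 hours at five concentrations. GI50 = concentration required for 50% inhibition of growth.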 Active and inactive are the calls of the source. No stated cut-off is given here; in the data, active = GI50 up to about 1.1 µM and inactive = higher.

How the values were obtained:
Test in all cases: growth of human tumour cells (NCI), 48 h
SK-OV-3 = system: SK-OV-3
HOP-62 = system: HOP-62
BT-549 = system: BT-549
SF-295 = system: SF-295
K562 = system: K562
A498 = system: A498
T47D = system: T47D
HL-60 = system: HL-60
COLO 205 = system: COLO 205
OVCAR-3 = system: OVCAR-3
U-251 = system: U-251
HCT-116 = system: HCT-116
MCF7 = system: MCF7
RXF 393 = system: RXF 393
MDA-MB-435 = system: MDA-MB-435
SN12C = system: SN12C
Hs-578T = system: Hs-578T
MOLT-4 = system: MOLT-4
SK-MEL-28 = system: SK-MEL-28

SMILES	GI50 (SK-OV-3)	GI50 (HOP-62)	GI50 (BT-549)	GI50 (SF-295)	GI50 (K562)	GI50 (A498)	GI50 (T47D)	GI50 (HL-60)	GI50 (COLO 205)	GI50 (OVCAR-3)	GI50 (U-251)	GI50 (HCT-116)	GI50 (MCF7)	GI50 (RXF 393)	GI50 (MDA-MB-435)	GI50 (SN12C)	GI50 (Hs-578T)	GI50 (MOLT-4)	GI50 (SK-MEL-28)
Cc1ccc2c(c1C)-c1c(ccc(C)c1C)C(=O)C2=O	2.15 µM (inactive)	1.39 µM (inactive)	0.335 µM (active)	0.59 µM (active)	0.266 µM (active)	1.87 µM (inactive)	1.81 µM (inactive)	0.219 µM (active)	2.02 µM (inactive)	0.296 µM (active)	0.432 µM (active)	0.361 µM (active)	0.21 µM (active)	0.337 µM (active)	0.21 µM (active)	0.817 µM (active)	0.342 µM (active)	0.2 µM (active)	0.92 µM (active)
O=c1oc2ccccc2c(Nc2ccc3c(c2)Oc2ccccc2O3)c1[N+](=O)[O-]	19.1 µM (inactive)	34.9 µM (inactive)	25.6 µM (inactive)	18 µM (inactive)	51.8 µM (inactive)	27 µM (inactive)	28.7 µM (inactive)	> 100 µM (inactive)	> 100 µM (inactive)	24.6 µM (inactive)	16 µM (inactive)	31.8 µM (inactive)	20.3 µM (inactive)	17.5 µM (inactive)	54.3 µM (inactive)	35.8 µM (inactive)	30.1 µM (inactive)	43 µM (inactive)	21.2 µM (inactive)
Cc1coc2c1CC1(C)C(CCC(O)C1C)C2 (configuration not stated)	> 100 µM (inactive)	> 100 µM (inactive)	> 100 µM (inactive)	> 100 µM (inactive)	> 100 µM (inactive)	> 100 µM (inactive)	> 100 µM (inactive)	> 100 µM (inactive)	> 100 µM (inactive)	> 100 µM (inactive)	> 100 µM (inactive)	> 100 µM (inactive)	> 100 µM (inactive)	> 100 µM (inactive)	> 100 µM (inactive)	> 100 µM (inactive)	> 100 µM (inactive)	> 100 µM (inactive)	
CC(C)C1OC(=O)C(Cc2ccccc2)N(C)C(=O)C(C(C)C)OC(=O)C(Cc2ccccc2)N(C)C(=O)C(C(C)C)OC(=O)C(Cc2ccccc2)N(C)C1=O (configuration not stated)	0.836 µM (active)	0.838 µM (active)	1.39 µM (inactive)	0.662 µM (active)	0.838 µM (active)	2.36 µM (inactive)	1.05 µM (active)	0.498 µM (active)	0.682 µM (active)	0.598 µM (active)	0.661 µM (active)	0.989 µM (active)	0.647 µM (active)	0.887 µM (active)	0.641 µM (active)	0.804 µM (active)	1.18 µM (inactive)	0.508 µM (active)	0.78 µM (active)
Cc1nc2ccc(S(=O)(=O)O)cc2c(=O)n1-c1ccc(C(=O)NN2C(=O)C(Cl)C2c2cccs2)cc1 (configuration not stated)	> 100 µM (inactive)	23.1 µM (inactive)	> 100 µM (inactive)	> 100 µM (inactive)	> 100 µM (inactive)	> 100 µM (inactive)	31.3 µM (inactive)	17.8 µM (inactive)	> 100 µM (inactive)	> 100 µM (inactive)	> 100 µM (inactive)	> 100 µM (inactive)	> 100 µM (inactive)	> 100 µM (inactive)	27.5 µM (inactive)	> 100 µM (inactive)	> 100 µM (inactive)	> 100 µM (inactive)	> 100 µM (inactive)
C/C=C(\C)C(=O)OC1CC(OC(C)=O)C2(C(=O)OC)COC3C2C1(C)C1C2(C(=O)OC)OCC1(C3O)C1(O)C3CC(C4(O)C=COC4O3)C1(C)O2 (configuration not stated)	> 100 µM (inactive)	> 100 µM (inactive)	> 100 µM (inactive)	> 100 µM (inactive)	> 100 µM (inactive)	> 100 µM (inactive)	> 100 µM (inactive)	92 µM (inactive)	> 100 µM (inactive)	> 100 µM (inactive)	> 100 µM (inactive)	> 100 µM (inactive)	> 100 µM (inactive)	> 100 µM (inactive)	40.8 µM (inactive)	> 100 µM (inactive)	> 100 µM (inactive)	> 100 µM (inactive)	> 100 µM (inactive)
CC(C)(C)c1cc(/C=C(\C#N)C2=NCCO2)cc(C(C)(C)C)c1O	3.31 µM (inactive)	4.3 µM (inactive)	3.43 µM (inactive)	2.86 µM (inactive)	3.59 µM (inactive)	3.84 µM (inactive)	2.64 µM (inactive)	2.12 µM (inactive)	1.91 µM (inactive)	2.17 µM (inactive)	3.31 µM (inactive)	3.07 µM (inactive)	3.4 µM (inactive)	3.26 µM (inactive)	4.47 µM (inactive)	2.94 µM (inactive)	5.09 µM (inactive)	3.37 µM (inactive)	6.35 µM (inactive)
O=C1NC(O)CCN1C1CC(O)C(CO)O1 (configuration not stated)	> 100 µM (inactive)	> 100 µM (inactive)	> 100 µM (inactive)	> 100 µM (inactive)	> 100 µM (inactive)	> 100 µM (inactive)	> 100 µM (inactive)	> 100 µM (inactive)	> 100 µM (inactive)	> 100 µM (inactive)	> 100 µM (inactive)	> 100 µM (inactive)	> 100 µM (inactive)	> 100 µM (inactive)	> 100 µM (inactive)	> 100 µM (inactive)	> 100 µM (inactive)	> 100 µM (inactive)	> 100 µM (inactive)
N#Cc1c(N2CCCC2)ncn(Cc2ccccc2)c1=S	> 100 µM (inactive)	40.3 µM (inactive)	> 100 µM (inactive)	94.6 µM (inactive)	> 100 µM (inactive)	40.6 µM (inactive)	> 86.7 µM (inactive)	> 100 µM (inactive)	> 100 µM (inactive)	60.5 µM (inactive)	38.9 µM (inactive)	> 100 µM (inactive)	49.1 µM (inactive)	30.3 µM (inactive)	> 100 µM (inactive)	> 100 µM (inactive)	> 54.8 µM (inactive)	> 100 µM (inactive)	> 100 µM (inactive)
COC(=O)[C@H]1CO[C@@H](C(C)(C)C)N1C(=O)N1C=CC(=O)C[C@@H]1C	> 100 µM (inactive)	> 100 µM (inactive)	> 100 µM (inactive)	> 100 µM (inactive)	> 100 µM (inactive)	> 100 µM (inactive)	> 100 µM (inactive)	> 100 µM (inactive)	> 100 µM (inactive)	> 100 µM (inactive)	> 100 µM (inactive)	> 100 µM (inactive)	> 100 µM (inactive)	> 100 µM (inactive)	> 100 µM (inactive)	> 100 µM (inactive)	> 100 µM (inactive)		> 100 µM (inactive)
COc1ccc(CSCc2cc(OC)c(OC)c(OC)c2)cc1	> 100 µM (inactive)	> 100 µM (inactive)	> 84.5 µM (inactive)	> 52.4 µM (inactive)	33.8 µM (inactive)	> 100 µM (inactive)	8 µM (inactive)	5.92 µM (inactive)	> 100 µM (inactive)	> 100 µM (inactive)	> 100 µM (inactive)	> 31.6 µM (inactive)	> 56 µM (inactive)	> 82 µM (inactive)	4.43 µM (inactive)	> 86.1 µM (inactive)	> 66.4 µM (inactive)	> 48.5 µM (inactive)	> 100 µM (inactive)
O=C1C2C(C(=O)N1c1ccccc1)C1(c3ccccc3)CCC2(C(=O)c2ccccc2)O1 (configuration not stated)	> 10 µM (inactive)	> 10 µM (inactive)	> 10 µM (inactive)	> 10 µM (inactive)		> 10 µM (inactive)	> 10 µM (inactive)	> 10 µM (inactive)	> 10 µM (inactive)	> 10 µM (inactive)	> 10 µM (inactive)	> 10 µM (inactive)	> 10 µM (inactive)	> 10 µM (inactive)	> 10 µM (inactive)	> 10 µM (inactive)	> 10 µM (inactive)	9.82 µM (inactive)	> 10 µM (inactive)
CN(C)CCOC1(CC2CCCCC2)CCC(C(C)(C)C)CC1 (configuration not stated)	11.6 µM (inactive)	4.04 µM (inactive)	6.19 µM (inactive)	4.32 µM (inactive)	2.04 µM (inactive)	6.47 µM (inactive)	3.34 µM (inactive)	2.54 µM (inactive)	2.87 µM (inactive)	7.53 µM (inactive)	4.74 µM (inactive)	4.36 µM (inactive)	2.98 µM (inactive)	3.72 µM (inactive)	4.74 µM (inactive)	6.46 µM (inactive)	6.78 µM (inactive)	2.49 µM (inactive)	4.68 µM (inactive)
O=C1C(c2c(O)[nH]c3ccc(Cl)cc23)=Nc2ccccc21	3.08 µM (inactive)	5.58 µM (inactive)	66.4 µM (inactive)	10.4 µM (inactive)	7.71 µM (inactive)	5.01 µM (inactive)	3.7 µM (inactive)	28.8 µM (inactive)	20 µM (inactive)	3.66 µM (inactive)	4.98 µM (inactive)	1.98 µM (inactive)	12.2 µM (inactive)	2.49 µM (inactive)	4.3 µM (inactive)	17 µM (inactive)	3.43 µM (inactive)	> 47 µM (inactive)	> 100 µM (inactive)
c1ccc2c(c1)nc1n2CCNC1	> 100 µM (inactive)	> 100 µM (inactive)	> 100 µM (inactive)	> 100 µM (inactive)	> 100 µM (inactive)	> 100 µM (inactive)	> 100 µM (inactive)	> 100 µM (inactive)	> 100 µM (inactive)	63 µM (inactive)	> 100 µM (inactive)	> 100 µM (inactive)	> 100 µM (inactive)	> 100 µM (inactive)	> 100 µM (inactive)	> 100 µM (inactive)	> 100 µM (inactive)	> 100 µM (inactive)	> 100 µM (inactive)
